Experimental findings from PubChem BioAssay (NCI) are described below.

Several values for one entry are separate records, joined by “and”; a condition that tells them apart may be missing. Equal entries are not always repeated.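 These data come from cells grown in 96-well plates and exposed to compound for 48 hours at five concentrations. Abbreviation: GI50, concentration required for 50% inhibition of growth. TGI: total growth inhibition.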

Common to all, as to assay: DTP human tumour cell line panel, 48 h
Test [1] has as its system NCI-H460 lung.
For test [2], the system named is M19-MEL melanoma.
Test [3] has as its system DMS 114 small cell lung.
For test [4], the system named is OVCAR-4 ovarian.
For test [5], the system named is HCC-2998 colon.
For test [6], the system named is KM20L2 colon.
Test [7] concerns U251 CNS.
Test [8] relates to OVCAR-3 ovarian.
For test [9], the system named is KM12 colon.
Test [10] has as its system MDA-MB-231 breast.

For the compound `Cc1ccc(NC(=O)CC2C(=O)Nc3ccccc3S2(=O)=O)cc1C` (stereo not given), the TGI in test [1], in [2], in [3], in test [4], in test [5] and in [6] was more than 100 µM each time. The TGI in test [7] and in test [8] was more than 100 µM in each case.
Turning to `CCOc1cc[n+](C(=C=[N-])C#N)cc1`, the TGI in [1], in test [2], in test [9], in test [3], in test [4] and in [5] was more than 100 µM throughout. For the same compound, the TGI in test [6], in test [7] and in test [8] was more than 100 µM throughout.
For the compound `CCOc1ccccc1NC(=O)C(=O)c1c(O)c2ccc(O)cc2oc1=O`, the TGI in [1], in [2], in test [9], in test [4], in test [5] and in [6] was more than 100 µM in each case. Also, the TGI in test [7] and in test [8] was more than 100 µM in each case.
In the case of `Nc1ncnc2c1ncn2COC/C=C/I`, the TGI in [1], in [2], in test [9], in [3], in [4] and in test [5] was more than 100 µM throughout. Further, the TGI in [7] and in [8] was more than 100 µM in each case.
On to `NNC(=O)N/N=C1/C(=O)N(c2ccc(Cl)c(Cl)c2)C(=O)C(=O)C1c1nc2ccccc2o1` (stereo not given), for which the TGI in test [2], in [3], in [4], in test [5], in [6] and in test [7] was more than 100 µM in each case. In [8], this compound showed a TGI of more than 100 µM.
Take `CCN(CC)c1ccc(N=C2C=CC(=C(C#N)C#N)c3ccccc32)c(C)c1`: the TGI was 8.41 µM in test [1]; 5.77 µM in test [2]; 5.63 µM in test [4]; 6.75 µM in [6]; 3.44 µM in test [7]; 3.82 µM in test [8].
On to `Cc1ccccc1NC(=O)CC(=O)n1nc(-c2ccccc2)c(N=Nc2ccc([N+](=O)[O-])cc2)c1-c1ccccc1`, for which the TGI in test [1] is more than 100 µM; in test [9] it was 61.5 µM; in test [3], 30.3 µM; in test [4] it was more than 100 µM; in test [5], 51.3 µM; in [6], 32.8 µM. Further, the TGI is 34.6 µM in [7] and 37.3 µM in test [8].
In the case of `COc1ccc(S(=O)(=O)N/N=C/CN2C(=O)c3ccccc3C2=O)cc1`, the TGI in [1], in [2], in test [9], in test [4], in test [5] and in test [6] was more than 100 µM throughout. For the same compound, the TGI in test [7] was more than 100 µM.
Turning to `COc1ccc([Se]c2ccc(OC)cc2)cc1`, the TGI in test [1], in test [2], in [9], in [3], in test [5] and in test [6] was more than 100 µM in each case. The total growth inhibition concentration (TGI) in [7] and in [8] was more than 100 µM each time.
Turning to `C#Cc1ccccc1N1C(=O)C=CC1=O`, the TGI in test [1], in test [2], in [3], in test [4], in test [6] and in [7] was more than 100 µM throughout. Also, the TGI in test [8] was more than 100 µM.
For `C(=NCCN=Cc1cccc2ccccc12)c1cccc2ccccc12`, the TGI in test [1], in test [2], in [9], in test [3], in [4] and in [5] was more than 100 µM throughout. Further, the TGI in [6] and in [7] was more than 100 µM throughout.
With `CC(=O)N1c2ccc(-c3ccc(C(=O)O)cc3)cc2[C@H](Nc2ccc(Cl)cc2)C[C@@H]1C`, the GI50 is 1.61 µM in [1]; 0.924 µM in [9]; 0.686 µM in test [4]; 0.371 µM in test [5]; 1.19 µM in [10]; 1.55 µM in [7]. In addition, the GI50 in [8] is 0.343 µM. Moreover, the TGI is more than 55.6 µM in [1]; 20.2 µM in test [9]; more than 100 µM in [4]; 7.81 µM in test [5]; more than 100 µM in test [10]; 32.9 µM in [7]. In test [8], the TGI stood at 18.8 µM.
Turning to `COc1ccc2c(c1)NC(=O)CN2c1nc(C)nc2ccccc12`, the GI50 in test [1] was 0.000397 µM; in test [9] it was 0.000353 µM; in test [5] it was 0.000371 µM; in [10], 0.000914 µM; in test [7] it was 0.000437 µM; in test [8] it was 0.000266 µM. For the same compound, the TGI is more than 100 µM in test [1]; more than 100 µM in [9]; more than 100 µM in test [4]; 34.2 µM in test [5]; more than 100 µM in test [10]; more than 100 µM in test [7]. In [8], this compound returned a TGI of 0.000746 µM.
For `NC(N)=NC(N)=NCc1ccco1`, the GI50 in test [1] was 866 µM and 766 µM; in test [9] it was more than 1250 µM; in [4], 316 µM; in test [5] it was more than 1250 µM; in test [10], more than 1250 µM; in test [7], 516 µM. Also, the GI50 in [8] was 847 µM. Also, the TGI in test [1], in test [9], in [4], in test [5], in [10] and in test [7] was more than 1250 µM in each case. Further, in test [8], the TGI is more than 1250 µM.
As to `COc1ccc(-c2cc(=O)c3cccnc3[nH]2)cc1`, the GI50 in [1] is 26.4 µM; in test [7], 54.1 µM; in test [8] it was 29.9 µM. For the same compound, the total growth inhibition concentration (TGI) is 91.4 µM in test [1]; more than 100 µM in test [9]; more than 100 µM in test [4]; more than 100 µM in [5]; more than 100 µM in test [10]; more than 100 µM in test [7]. Besides, in test [8], the TGI was more than 100 µM.

As a reminder, the TGI is the concentration giving total growth inhibition. A high value points to lower sensitivity of the cells. The term GI50 denotes the concentration that inhibits growth by half.
